Test [1] concerns DLD-1 colon cancer cells. The test can be described thus: MTT viability assay, DLD-1. It is filed as cell-based. Conditions: Homo sapiens. The source says: Specific Examples of compounds of the present disclosure have EC50 values estimated using a cell-based assay for binding to the KLF5 promoter and, in many cases, a follow-up viability assay (MTT) using DLD-1 colon cancer cells, a cell line known to highly express KLF5 and whose growth is adversely affected by the reduction of KLF5 levels. Assay protocols follow those described in the literature.^22,23 Other assays that are not described here but that are standard in the field may also be useful in establishing mechanism of action of these compounds.
(Formazan colour is commonly taken as a measure of viable cells.)

Test [2] relates to MAPK pathway. The test can be described thus: Western blot of MAPK signaling pathway components. The class given is cell-based, human. Particulars: DLD-1 and HCT116, 10 μM, 72 h. The source says: SR18662 negatively regulates MAPK and WNT signaling pathway and cyclin levels. Myriad publications have shown that in both in vitro and in vivo contexts KLF5 is regulated by MAPK and WNT signaling pathways and that KLF5, in turn, has the ability to modulate the activity of these pathways (14, 18, 26-32). We have previously shown that treatment of CRCs with ML264 results in decreased activity of both the MAPK and WNT signaling pathways (24). Because SR15006 and SRI8662 are structurally related to ML264, we decided to investigate their ability to alter the expression levels of the components of these pathways. Thus, we treated DLD-1 and HCT116 CRCs with DMSO (vehicle) and tested compounds at 1 μM or 10 μM, collecting the cells for western blot analysis at 24, 48, and 72 h. […] Similar effects were seen when both cell lines were treated these compounds at 1 μM. Furthermore, the inhibitory effects of SR18662 on the components of the MAPK signaling pathway we observed at earlier time points than were apparent following treatment with ML264 or SR15006.
(§1) Western blot analysis. Total protein was extracted from cells with Laemmli buffer and the analysis was performed as described previously (24).
(In general: A western blot detects proteins with antibodies after separation by electrophoresis.)

Test [3] relates to KLF5. The test can be described thus: Western blot of KLF5 protein levels in DLD-1 cells. It is filed as cell-based, human. Particulars: 1 μM and 10 μM, 24 h. The procedure:
In this experiment the test compounds were at 1 μM and 10 μM, and protein levels were measured after 24 h.
as §1

Test [4] concerns human KLF5 promoter. The test can be described thus: KLF5 promoter activity luciferase assay in DLD-1/pGL4.18hKLF5p cells. It is filed as cell-based. Conditions: for EC50: read-out: Approximate potency (EC50 · mol/L) (luciferase). The method, then: To examine the impact of these compounds on viability of CRC cell lines, we performed cell proliferation and cell growth assays using DLD-1 and HCT116 CRC cells. […] KLF5 promoter activity assay. DLD-1/pGL4.18hKLF5p cells were seeded in 96 well plate format and treated with DMSO or with test compounds dissolved in DMSO in the range of 0.001 to 20 μM final concentration for 24 h and the human KLF5 promoter activity was determined with the ONE-Glo luciferase assay system (Promega) using a SpectramMax M3 (Molecular Devices) plate reader. The IC50 values were calculated using GraphPad Prism version 5.00 for Windows (GraphPad Software) (22).

Test [5] deals with DLD-1 and HCT116 CRC cells. The test can be described thus: Cell cycle analysis by flow cytometry (propidium iodide). The class given is cell-based, human. Particulars: 10 μM, over three days. The method, then: SR18662 alters the cell cycle pattern of CRCs. […] We have also evaluated the impact of SR15006 and SR18662 on cell cycle progression. We treated DLD-1 and HCT116 CRC cells over the course of three days with vehicle or 1 μM or 10 μM of test compound and then analyzed cell cycle using flow cytometry.
Cell proliferation, cell cycle and apoptosis assays. For cell proliferation experiments, cell cycle, and apoptosis determination, DLD-1 and HCT116 cells were treated with 1 or 10 μM of each compound or with vehicle (DMSO). The cells were collected at 24, 48, and 72 h post-treatment and analyzed as previously described (24). Each experiment was performed in triplicate.
On the technique in general: In flow cytometry, cells or beads pass a laser one at a time.

Test [6] relates to Cyclin D1, E, A2, and B1. The test can be described thus: Western blot of cyclin levels. The class given is cell-based, human. Conditions: DLD-1 and HCT116, 1 μM or 10 μM, 72 h.
Text: Cyclins and their appropriate cyclin-dependent kinases form a regulatory network that allow cells to progress through the cell cycle (39, 40). […] SR15006, or SR18662, as compared to vehicle-treated cells. Thus, we investigated if these changes are accompanied by differences in the expression levels of cyclins. We focused our attention on Cyclin D1, E, A2, and B1, as we have previously shown that ML264 has inhibitory effect on their levels (24). […] Additionally, in contrast to ML264 or SR15006, SR18862 induced apoptosis and cell death.
as §1

Test [7] deals with HCT-116 colorectal cancer cell line. The test can be described thus: MTT growth assay, HCT-116. The class given is cell-based. Particulars: Homo sapiens, Table 1. The source says:
(§2) The observed activity is greater than that previously seen for ML264.

Test [8] concerns SW-620 colorectal cancer cell line. The test can be described thus: MTT growth assay, SW-620. It is filed as cell-based. Conditions: Homo sapiens, Table 1.
Text: as §2

Test [9] deals with HT-29 colorectal cancer cell line. The test can be described thus: MTT growth assay, HT-29. The class given is cell-based. Conditions: Homo sapiens, Table 1.
Text: as §2

Test [10] has as its system DLD-1-derived tumor xenografts. Conditions: once a day 25 mg/kg; cited from earlier work.
Setting [11] is: Table 2, read-out: Approximate potency (EC50 · mol/L) (DLD1, MTT assay).

Results on 18 compounds are retold here after patent US12486227B2, “Small molecules for cancer therapy that reduce the expression of transcription factors KLF5 and EGR-1” (University of Florida Research Foundation, Incorporated, priority 2019, dated 2025).

Where two headings read alike, the source gives them in different places.

As usually defined, the IC50 is the concentration that gives 50% inhibition. Turning to `CS(=O)(=O)N1CCN(C(=O)CNC(=O)/C=C/c2cccc(Cl)c2)CC1` [Example 1, (E)-3-(3-chlorophenyl)-N-(2-(4-(methylsulfonyl)piperazin-1-yl)-2-oxoethyl)acrylamide], the EC50 worked out at 16.3 nM in test [1] (setting [11]) and 41.6 nM in [4] (Homo sapiens, DLD-1, Table 2). The “expression levels of MAPK pathway components” value in [2] is recorded as “negatively regulated the expression levels of the components of the MAPK pathway”. In addition, the “KLF5 protein levels by Western blot” value in test [3] was “significantly reduced”. Besides, the IC50 in test [4] (Homo sapiens, DLD-1, 24 h treatment, FIG. 1B, read-out: IC50, human KLF5 promoter activity) was 41.6 nM. Moreover, the cell cycle distribution entry in test [5] is reported as “affected the cell cycle in the similar way as did ML264”. In [6], the levels of cyclins entry was “significant reduction in the levels of tested cyclins”.

Consider `CS(=O)(=O)NCC1CCN(C(=O)CNC(=O)/C=C/c2cccc(Cl)c2)CC1` [Example 2, (E)-3-(3-chlorophenyl)-N-(2-(4-(methylsulfonamidomethyl)piperidin-1-yl)-2-oxoethyl)acrylamide], for which the EC50 in [1] (setting [11]) was determined as 140 nM; in test [4] (Homo sapiens, DLD-1, Table 2), 1410 nM.

Turning to `CS(=O)(=O)NCC1CCN(C(=O)CNC(=O)/C=C/c2cccc(Cl)c2)C1` (centres unmarked) [Example 3, (E)-3-(3-chlorophenyl)-N-(2-(3-(methylsulfonamidomethyl)pyrrolidin-1-yl)-2-oxoethyl)acrylamide], the EC50 in test [4] (Homo sapiens, DLD-1, Table 2) worked out at 846 nM.

`CS(=O)(=O)N1CCC(CNC(=O)CNC(=O)/C=C/c2cccc(Cl)c2)CC1` [Example 4, (E)-3-(3-chlorophenyl)-N-(2-(((1-(methylsulfonyl)piperidin-4-yl)methyl)amino)-2-oxoethyl)acrylamide]: the EC50 in test [1] (setting [11]) turned out to be 2730 nM.

As to `CS(=O)(=O)N1CCC(CNC(=O)CNC(=O)/C=C/c2cccc(Cl)c2)C1` (centres unmarked) [Example 5, (E)-3-(3-chlorophenyl)-N-(2-(((1-(methylsulfonyl)pyrrolidin-3-yl)methyl)amino)-2-oxoethyl)acrylamide], the EC50 in test [1] (setting [11]) was 3.26 nM.

Take `CS(=O)(=O)N1CCCN(C(=O)CNC(=O)/C=C/c2cccc(Cl)c2)CC1` [Example 6, (E)-3-(3-chlorophenyl)-N-(2-(4-(methylsulfonyl)-1,4-diazepan-1-yl)-2-oxoethyl)acrylamide]: the EC50 in [4] (Homo sapiens, DLD-1, Table 2) came out at 1080 nM.

For `O=C(/C=C/c1cccc(Cl)c1)NCC(=O)N1CCN(S(=O)(=O)C2CCCCC2)CC1` [Example 7, (E)-3-(3-chlorophenyl)-N-(2-(4-(cyclohexylsulfonyl)piperazin-1-yl)-2-oxoethyl)acrylamide], the EC50 came out at 347 nM in test [1] (setting [11]) and 1280 nM in [4] (Homo sapiens, DLD-1, Table 2).

For the compound `CC(C)CS(=O)(=O)N1CCN(C(=O)CNC(=O)/C=C/c2cccc(Cl)c2)CC1` [Example 8, (E)-3-(3-chlorophenyl)-N-(2-(4-(isobutylsulfonyl)piperazin-1-yl)-2-oxoethyl)acrylamide], the EC50 worked out at 322 nM in test [1] (setting [11]) and 7050 nM in test [4] (Homo sapiens, DLD-1, Table 2).

On to `COc1ccc(/C=C/C(=O)NCC(=O)N2CCN(S(C)(=O)=O)CC2)cc1Cl` [Example 10, (E)-3-(3-chloro-4-methoxyphenyl)-N-(2-(4-(methylsulfonyl)piperazin-1-yl)-2-oxoethyl)acrylamide], for which the EC50 in [1] (setting [11]) came out at 63.8 nM; in [4] (Homo sapiens, DLD-1, Table 2), 170 nM.

In the case of `CS(=O)(=O)N1CCN(C(=O)CNC(=O)/C=C/c2ccc(F)c(Cl)c2)CC1` [Example 11, (E)-3-(3-chloro-4-fluorophenyl)-N-(2-(4-(methylsulfonyl)piperazin-1-yl)-2-oxoethyl)acrylamide], the EC50 in test [1] (setting [11]) worked out at 25.3 nM; in test [4] (Homo sapiens, DLD-1, Table 2), 26.1 nM.

As for `CS(=O)(=O)N1CCN(C(=O)CNC(=O)/C=C/c2cccc(Br)c2)CC1` [Example 12, (E)-3-(3-bromophenyl)-N-(2-(4-(methylsulfonyl)piperazin-1-yl)-2-oxoethyl)acrylamide], the EC50 stood at 73.5 nM in test [1] (setting [11]) and 87.8 nM in [4] (Homo sapiens, DLD-1, Table 2).

Consider `CS(=O)(=O)N1CCN(C(=O)CNC(=O)/C=C/c2cc(Cl)cc(Cl)c2)CC1` [Example 13, (E)-3-(3,5-dichlorophenyl)-N-(2-(4-(methylsulfonyl)piperazin-1-yl)-2-oxoethyl)acrylamide], for which the EC50 is 78.1 nM in test [1] (setting [11]) and 108 nM in test [4] (Homo sapiens, DLD-1, Table 2).

On to `CS(=O)(=O)N1CCN(C(=O)CNC(=O)/C=C/c2ccc(F)c(F)c2)CC1` [Example 14, (E)-3-(3,4-difluorophenyl)-N-(2-(4-(methylsulfonyl)piperazin-1-yl)-2-oxoethyl)acrylamide], for which the EC50 in test [1] (setting [11]) is 41 nM; in test [4] (Homo sapiens, DLD-1, Table 2) it was 46.1 nM.

In the case of `Cc1ccc(/C=C/C(=O)NCC(=O)N2CCN(S(C)(=O)=O)CC2)cc1Cl` [Example 15, (E)-3-(3-chloro-4-methylphenyl)-N-(2-(4-(methylsulfonyl)piperazin-1-yl)-2-oxoethyl)acrylamide], the EC50 in [1] (setting [11]) turned out to be 3.63 nM; in [4] (Homo sapiens, DLD-1, Table 2), 6.28 nM.

As to `CS(=O)(=O)N1CCN(C(=O)CNC(=O)/C=C/c2ccc(C(F)(F)F)c(Cl)c2)CC1` [Example 16, (E)-3-(3-chloro-4-(trifluoromethyl)phenyl)-N-(2-(4-(methylsulfonyl)piperazin-1-yl)-2-oxoethyl)acrylamide], in test [1] (setting [11]), the EC50 amounted to 315 nM. In test [4] (Table 2), the “Approximate potency (EC50 · mol/L) (luciferase)” value is “Not converged”.

Consider `CS(=O)(=O)N1CCN(C(=O)CNC(=O)/C=C/c2ccc(OC(F)(F)F)c(Cl)c2)CC1` [Example 17, (E)-3-(3-chloro-4-(trifluoromethoxy)phenyl)-N-(2-(4-(methylsulfonyl)piperazin-1-yl)-2-oxoethyl)acrylamide], for which the EC50 in [1] (setting [11]) worked out at 1610 nM; in [4] (Homo sapiens, DLD-1, Table 2), 7910 nM.

Turning to `CS(=O)(=O)N1CCN(C(=O)CNC(=O)/C=C/c2ccc3c(c2)OCO3)CC1` [Example 18, (E)-3-(benzo[d][1,3]dioxol-5-yl)-N-(2-(4-(methylsulfonyl)piperazin-1-yl)-2-oxoethyl)acrylamide], the EC50 in test [1] (setting [11]) stood at 15.3 nM; in [4] (Homo sapiens, DLD-1, Table 2) it was 20.1 nM.

As to `CN(C(=O)CNC(=O)/C=C/c1cccc(Cl)c1)C1CCS(=O)(=O)CC1` [ML264, reference compound], the EC50 was 13 nM in test [1] (MTT, Table 1, read-out: EC50 (nM) DLD-1); 34 nM in test [7]; 412 nM in test [8]; 295 nM in test [9]. In addition, in test [2], the “expression levels of MAPK pathway components” value is reported as “negatively regulated the expression levels of the components of the MAPK pathway”. In [3], the “KLF5 protein levels by Western blot” value is “significantly reduced”. In test [5], the cell cycle distribution entry is “significant decrease in the number of cells in G0/G1 and an increase in cells in S- and G2/M phases”. Further, the levels of cyclins result in test [6] is “significant reduction in the levels of tested cyclins”. In test [10], the “growth of CRC xenografts” value is listed as “significantly reduced the growth”.
